# According to patent US9044421B2, “Treating MUC1-expressing cancers with combination therapies” (GENUS ONCOLOGY, LLC., priority 2012, dated 2015):
# pIC50: −log10 of the molar value. Where a SMILES comes first, the peptide text is derived from it. [ ]: non-standard residue; d: D form.
# What was measured:
# PI3-kinase = conditions: different cell types (Folks et al., 2008); cited from earlier work
# [1] = system: H-1650 non small cell lung carcinoma cells; test: AlamarBlue cell viability assay, H-1650 cells; format: cell-based
# Description: FIG. 1. H-1650 non small cell lung carcinoma cells in a 96-well plate were treated with various concentrations of purified GO-203-2C for four days. AlamarBlue dye was added to the cells on day 5, and the absorbance was measured at 570 and 600 nm. A 4-parameter curve was obtained by plotting the percentage reduction of alamarBlue calculated using these absorbance values against the concentration of GO-203-2C used.
# alamarBlue assay involves the usage of a fluorometric/colorimetric growth indicator, alamarBlue based on the metabolic activity of cells. As cells grow, the innate metabolic activity results in a chemical reduction of alamarBlue. Continued growth maintains a reduced environment while inhibition of growth maintains an oxidized environment. Live cells cause the change of alamarBlue from oxidized (non-fluorescent, blue) form to reduced (fluorescent, red) form. Data can be collected using either fluorescence-based or absorbance-based instrumentation. Fluorescence is monitored at 530-560 nm excitation wavelength and at 590 nm emission wavelength. Absorbance is monitored at 570 am and 600 nm.
# This assay was developed with a 96-well plate using ZR-75-1 or MCF-7 (breast carcinoma cell lines) or H1650 non-small cell lung carcinoma cells at different cell concentrations and the optimal cell number was calculated to be 5,000 cells/well in […] volume. The cell number/well has to be optimized for each cell type to be tested. ZR-75-1 or MCF-7 cells were treated with various concentrations of GO-203-2c, LY294002 or GDC-0941 with 2-fold serial dilutions to obtain a total of 8 different concentrations. Cells in triplicate wells were treated with each concentration of GO-203-2c every day, for 4 days. […] At the end of each hour, absorbance of the plate was measured at 570 nm and 600 nm as reference. A set of blank wells was maintained with medium alone and medium with alamarBlue for the purpose of calculating actual absorbance. Obtained absorbance values were plotted against respective concentrations of GO-2-3-2c. […]
# p-AKT = test: Immunoblotting of total cell lysates with anti-phospho-AKT; format: cell-based; conditions: ZR-75-1 cells, combined with LY294002 (FIG. 8)
# Description: FIG. 8. ZR-75-1 breast carcinoma cells were treated with GO-203-2C and LY294002 either alone or in combination. Total cell lysates were prepared and analyzed by immunoblotting with anti-phospho-AKT (top panel) or anti-AKT (bottom panel).
# p-S6K = test: Immunoblotting of total cell lysates with anti-phospho-S6K; format: cell-based; conditions: ZR-75-1 cells, combined with GDC-0941 (FIG. 9)
# Description: FIG. 9. ZR-75-1 breast carcinoma cells were treated with GO-203-2C and GDC-0941 either alone or in combination. Total cell lysates were prepared and analyzed by immunoblotting with anti-phospho-S6K (top panel) or anti-S6K (bottom panel).
SMILES,pIC50 (PI3-kinase),live cells ([1]; at 10 mM) [%],percent reduction of alamarBlue ([1]; highest concentration tested (10 mM)) [%],"percent reduction of alamarBlue ([1]; lowest concentration tested (0.078 mM), untreated control 55.34%) [%]",effect on p-AKT (p-AKT),effect on p-S6K (p-S6K)
CS(=O)(=O)N1CCN(Cc2cc3nc(-c4cccc5[nH]ncc45)nc(N4CCOCC4)c3s2)CC1 [GDC-0941],5.70 to 6.30,–,–,–,–,–
CC(=O)N[C@H](CCCNC(=N)N)C(=O)N[C@H](CCCNC(=N)N)C(=O)N[C@H](CCCNC(=N)N)C(=O)N[C@H](CCCNC(=N)N)C(=O)N[C@H](CCCNC(=N)N)C(=O)N[C@H](CCCNC(=N)N)C(=O)N[C@H](CCCNC(=N)N)C(=O)N[C@H](CCCNC(=N)N)C(=O)N[C@H](CCCNC(=N)N)C(=O)N[C@H](CS)C(=O)N[C@H](CCC(N)=O)C(=O)N[C@H](CS)C(=O)N[C@H](CCCNC(=N)N)C(=O)N[C@H](CCCNC(=N)N)C(=O)N[C@H](CCCCN)C(=O)N[C@H](CC(N)=O)C(N)=O [GO-203-2C] (Ac-[dR][dR][dR][dR][dR][dR][dR][dR][dR][dC][dQ][dC][dR][dR][dK][dN]-NH2),–,12.3,6.86,55.65,contributing to the downregulation,contributing to the downregulation
